Molecular target: BTK (Homo sapiens (Human), UniProt Q06187)
Assay: kinase-tagged phage / affinity bead competition binding screen (qPCR readout)
Details: BTK versus SRC

BTK, sequence (Q06187 whole entry): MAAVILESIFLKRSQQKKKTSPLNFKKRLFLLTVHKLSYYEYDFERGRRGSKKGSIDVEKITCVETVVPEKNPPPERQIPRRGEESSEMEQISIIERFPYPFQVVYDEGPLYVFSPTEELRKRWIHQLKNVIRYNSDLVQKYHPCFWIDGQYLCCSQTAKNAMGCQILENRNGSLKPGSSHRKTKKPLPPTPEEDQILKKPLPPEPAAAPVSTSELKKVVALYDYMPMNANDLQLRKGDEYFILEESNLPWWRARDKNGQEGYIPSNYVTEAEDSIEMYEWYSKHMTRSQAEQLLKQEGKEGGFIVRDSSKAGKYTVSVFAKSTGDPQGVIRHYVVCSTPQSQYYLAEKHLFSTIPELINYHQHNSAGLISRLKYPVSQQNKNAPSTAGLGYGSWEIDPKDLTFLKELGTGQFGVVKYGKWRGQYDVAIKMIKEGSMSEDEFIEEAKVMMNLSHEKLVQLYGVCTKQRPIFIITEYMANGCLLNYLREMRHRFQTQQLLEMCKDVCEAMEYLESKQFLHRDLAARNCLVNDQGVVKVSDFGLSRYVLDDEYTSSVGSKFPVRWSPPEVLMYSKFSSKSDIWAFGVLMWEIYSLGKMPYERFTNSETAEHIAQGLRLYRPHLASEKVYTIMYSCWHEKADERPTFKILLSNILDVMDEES

C=CC(=O)N1CCN(c2ccc(C(N)=O)c(-c3ccc(Oc4ccccc4)cc3)n2)CC1 [Example 5, 6-(4-acryloylpiperazin-1-yl)-2-(4-phenoxyphenyl)nicotinamide]
Fold Difference: >100x
